# The supplement of paper PMC10307832
# Assays:
# Assay in all cases: relative viability (nuclei count vs DMSO), 5 days (fraction); higher = more cells survive
# LCLC-97TM1 = tested on: LCLC-97TM1
# Method in brief: (§1)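 Values are medians from duplicate plates. Each reflects relative viability, defined as the nuclei count of treated wells over that of vehicle wells. Lung cancer cell lines in 1536-well plates were pin-tool dosed one day after seeding with one drug alone or with a fixed anchor-drug dose plus five library-drug doses (not always all listed) in √10 steps, then fixed, stained and imaged at 4× after 5 days.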
# NCI-H1666 = tested on: NCI-H1666
# Method in brief: as §1
# HCC-15 = tested on: HCC-15
# Method in brief: as §1
# NCI-H1651 = tested on: NCI-H1651
# Method in brief: as §1
# BEN = tested on: BEN
# Method in brief: as §1
# LK-2 = tested on: LK-2
# Method in brief: as §1
# NCI-H322M = tested on: NCI-H322M
# Method in brief: as §1
# NCI-H2087 = tested on: NCI-H2087
# Method in brief: as §1
# LU99A = tested on: LU99A
# Method in brief: as §1
# SK-MES-1 = tested on: SK-MES-1
# Method in brief: as §1
# LC-2-ad = tested on: LC-2-ad
# Method in brief: as §1
# NCI-H1944 = tested on: NCI-H1944
# Method in brief: as §1
# NCI-H661 = tested on: NCI-H661
# Method in brief: as §1
# ChaGo-K-1 = tested on: ChaGo-K-1
# Method in brief: as §1
# LXF-289 = tested on: LXF-289
# Method in brief: as §1
# NCI-H650 = tested on: NCI-H650
# Method in brief: as §1
# NCI-H358 = tested on: NCI-H358
# Method in brief: as §1
# NCI-H2342 = tested on: NCI-H2342
# Method in brief: as §1
# NCI-H838 = tested on: NCI-H838
# Method in brief: as §1
# PC-3 [JPC-3] = tested on: PC-3 [JPC-3]
# Method in brief: as §1
# H3255 = tested on: H3255
# Method in brief: as §1
# NCI-H596 = tested on: NCI-H596
# Method in brief: as §1
# UMC-11 = tested on: UMC-11
# Method in brief: as §1
smiles,measurement,setting,value
COc1cc(N2CCC(C(N)=O)CC2)ccc1Nc1nc(N)c(Cl)c(Nc2ccccc2S(=O)(=O)C(C)C)n1 [HG-5-88-01] + CCNC(=O)c1noc(-c2cc(C(C)C)c(O)cc2O)c1-c1ccc(CN2CCOCC2)cc1 [Luminespib] (partner 0.01 µM),relative viability,LCLC-97TM1; first compound 0.04 µM,0.864
same,relative viability,LCLC-97TM1; first compound 0.1265 µM,0.647
same,relative viability,LCLC-97TM1; first compound 0.4 µM,0.713
same,relative viability,LCLC-97TM1; first compound 1.265 µM,0.511
same,relative viability,LCLC-97TM1; first compound 4 µM,0.301
same,relative viability,NCI-H1666; first compound 0.04 µM,1.05
same,relative viability,NCI-H1666; first compound 0.1265 µM,0.991
same,relative viability,NCI-H1666; first compound 0.4 µM,0.948
same,relative viability,NCI-H1666; first compound 1.265 µM,0.925
same,relative viability,NCI-H1666; first compound 4 µM,0.777
same,relative viability,HCC-15; first compound 0.04 µM,0.386
same,relative viability,HCC-15; first compound 0.1265 µM,0.2
same,relative viability,HCC-15; first compound 0.4 µM,0.553
same,relative viability,HCC-15; first compound 1.265 µM,0.468
same,relative viability,HCC-15; first compound 4 µM,0.41
same,relative viability,NCI-H1651; first compound 0.04 µM,0.87
same,relative viability,NCI-H1651; first compound 0.1265 µM,0.976
same,relative viability,NCI-H1651; first compound 0.4 µM,1.17
same,relative viability,NCI-H1651; first compound 1.265 µM,0.771
same,relative viability,NCI-H1651; first compound 4 µM,0.934
same,relative viability,BEN; first compound 0.04 µM,0.337
same,relative viability,BEN; first compound 0.1265 µM,0.412
same,relative viability,BEN; first compound 0.4 µM,0.43
same,relative viability,BEN; first compound 1.265 µM,0.465
same,relative viability,BEN; first compound 4 µM,0.234
same,relative viability,LK-2; first compound 0.04 µM,0.192
same,relative viability,LK-2; first compound 0.1265 µM,0.241
same,relative viability,LK-2; first compound 0.4 µM,0.205
same,relative viability,LK-2; first compound 1.265 µM,0.183
same,relative viability,LK-2; first compound 4 µM,0.193
same,relative viability,NCI-H322M; first compound 0.04 µM,0.782
same,relative viability,NCI-H322M; first compound 0.1265 µM,0.835
same,relative viability,NCI-H322M; first compound 0.4 µM,0.555
same,relative viability,NCI-H322M; first compound 4 µM,0.627
same,relative viability,NCI-H2087; first compound 0.04 µM,0.173
same,relative viability,NCI-H2087; first compound 0.1265 µM,0.228
same,relative viability,NCI-H2087; first compound 0.4 µM,0.173
same,relative viability,NCI-H2087; first compound 1.265 µM,0.19
same,relative viability,NCI-H2087; first compound 4 µM,0.204
same,relative viability,LU99A; first compound 0.04 µM,0.214
same,relative viability,LU99A; first compound 0.1265 µM,0.217
same,relative viability,LU99A; first compound 0.4 µM,0.288
same,relative viability,LU99A; first compound 1.265 µM,0.275
same,relative viability,LU99A; first compound 4 µM,0.252
same,relative viability,SK-MES-1; first compound 0.04 µM,0.843
same,relative viability,SK-MES-1; first compound 0.1265 µM,0.82
same,relative viability,SK-MES-1; first compound 0.4 µM,0.823
same,relative viability,SK-MES-1; first compound 1.265 µM,0.782
same,relative viability,SK-MES-1; first compound 4 µM,0.689
same,relative viability,LC-2-ad; first compound 0.04 µM,1.05
same,relative viability,LC-2-ad; first compound 0.1265 µM,1.17
same,relative viability,LC-2-ad; first compound 0.4 µM,1.13
same,relative viability,LC-2-ad; first compound 1.265 µM,0.812
same,relative viability,LC-2-ad; first compound 4 µM,1.06
same,relative viability,NCI-H1944; first compound 0.04 µM,0.808
same,relative viability,NCI-H1944; first compound 0.1265 µM,0.821
same,relative viability,NCI-H1944; first compound 0.4 µM,0.759
same,relative viability,NCI-H1944; first compound 1.265 µM,0.673
same,relative viability,NCI-H1944; first compound 4 µM,0.729
same,relative viability,NCI-H661; first compound 0.04 µM,0.938
same,relative viability,NCI-H661; first compound 0.1265 µM,0.964
same,relative viability,NCI-H661; first compound 0.4 µM,1.04
same,relative viability,NCI-H661; first compound 1.265 µM,1.03
same,relative viability,NCI-H661; first compound 4 µM,0.951
same,relative viability,ChaGo-K-1; first compound 0.04 µM,0.572
same,relative viability,ChaGo-K-1; first compound 0.1265 µM,0.682
same,relative viability,ChaGo-K-1; first compound 0.4 µM,0.516
same,relative viability,ChaGo-K-1; first compound 1.265 µM,0.66
same,relative viability,ChaGo-K-1; first compound 4 µM,0.733
same,relative viability,LXF-289; first compound 0.04 µM,0.703
same,relative viability,LXF-289; first compound 0.1265 µM,0.733
same,relative viability,LXF-289; first compound 0.4 µM,0.698
same,relative viability,LXF-289; first compound 1.265 µM,0.721
same,relative viability,LXF-289; first compound 4 µM,0.897
same,relative viability,NCI-H650; first compound 0.04 µM,0.87
same,relative viability,NCI-H650; first compound 0.1265 µM,0.802
same,relative viability,NCI-H650; first compound 0.4 µM,0.816
same,relative viability,NCI-H650; first compound 1.265 µM,0.63
same,relative viability,NCI-H650; first compound 4 µM,0.772
same,relative viability,NCI-H358; first compound 0.04 µM,0.335
same,relative viability,NCI-H358; first compound 0.1265 µM,0.256
same,relative viability,NCI-H358; first compound 0.4 µM,0.422
same,relative viability,NCI-H358; first compound 1.265 µM,0.099
same,relative viability,NCI-H358; first compound 4 µM,0.148
same,relative viability,NCI-H2342; first compound 0.04 µM,0.672
same,relative viability,NCI-H2342; first compound 0.1265 µM,0.739
same,relative viability,NCI-H2342; first compound 0.4 µM,0.688
same,relative viability,NCI-H2342; first compound 1.265 µM,0.701
same,relative viability,NCI-H2342; first compound 4 µM,0.845
same,relative viability,NCI-H838; first compound 0.04 µM,0.322
same,relative viability,NCI-H838; first compound 0.1265 µM,0.288
same,relative viability,NCI-H838; first compound 0.4 µM,0.212
same,relative viability,NCI-H838; first compound 1.265 µM,0.276
same,relative viability,NCI-H838; first compound 4 µM,0.205
same,relative viability,PC-3 [JPC-3]; first compound 0.04 µM,0.709
same,relative viability,PC-3 [JPC-3]; first compound 0.1265 µM,0.656
same,relative viability,PC-3 [JPC-3]; first compound 0.4 µM,0.724
same,relative viability,PC-3 [JPC-3]; first compound 1.265 µM,0.744
same,relative viability,PC-3 [JPC-3]; first compound 4 µM,0.743
same,relative viability,H3255; first compound 0.04 µM,0.752
same,relative viability,H3255; first compound 0.1265 µM,0.913
same,relative viability,H3255; first compound 0.4 µM,0.818
same,relative viability,H3255; first compound 4 µM,0.847
same,relative viability,NCI-H596; first compound 0.04 µM,1.18
same,relative viability,NCI-H596; first compound 0.1265 µM,1.09
same,relative viability,NCI-H596; first compound 0.4 µM,1.07
same,relative viability,NCI-H596; first compound 1.265 µM,1.17
same,relative viability,NCI-H596; first compound 4 µM,1.22
same,relative viability,UMC-11; first compound 0.04 µM,0.914
same,relative viability,UMC-11; first compound 0.1265 µM,1.08
same,relative viability,UMC-11; first compound 1.265 µM,0.983
same,relative viability,UMC-11; first compound 4 µM,1.12
